Test system: human PMN-MDSC
Assay: Human PMN-MDSC assay (PMN-MDSC/CD8+ T cell/DC coculture, IFNγ HTRF)
Type: cell-based
Details: 10 μM
Text: CD34+ cells were isolated from fresh human blood from healthy donors, obtained from the Health Services unit of the Healthcare Business of Merck KGaA, Darmstadt, Germany. First, peripheral blood mononuclear cells (PBMC) were isolated via density centrifugation, and then the target cells were isolated via magnetic bead labeling using the EasySep Human CD34 Positive Selection Kit II (Stemcell Technologies #17856). After isolation, the CD34+ cells were cultivated in cultivation medium (StemSpan SFEM II (Stemcell Technologies #09655) + 10% (1×) StemSpan CD34+ Expansion (Stemcell Technologies #02691)) for 10 to 12 days. At that point, the media was exchanged for fresh […] medium (Gibco #31870), supplemented with 10% FCS, 2 mM L-glutamine, 100 U/ml penicillin/streptomycin, 1 mM sodium-pyruvate, 1 mM non-essential amino acids, 50 μM ß-mercaptoethanol, and 100 ng/ml human G-CSF (PeproTech, AF-300-23), and the cells were incubated for 10 days in order to derive human PMN-MDSC.
Monocytes were isolated from fresh human blood from healthy donors, obtained from Health Services unit of the Healthcare Business of Merck KGaA, Darmstadt, Germany. […]
PMN-MDSC and DC were differentiated as described above. […] At that point, the supernatant was transferred and IFNγ was measured using a human INFγ HTRF kit (Cisbio #62[…]) following standard assay protocol provided by the manufacturer. The data was analyzed using Genedata software (GeneData Inc, https://www.genedata.com/) with 0% defined by the DMSO-treated wells and 100% effect defined by the wells without PMN-MDSC. […]
After confirming the physiological and pharmacological suitability of the NUP-MDSC model, we developed a high-throughput screen for the identification of potential MDSC modulators (Fig. 4A and supplemental Fig. S3). […] After 72 h, T cell activity was assessed by recording T cell proliferation and IFN-γ secretion. […] Compounds were declared hits if reversing the suppression effect of NUP-MDSC on T cells with ≥50% in either readout resulting in 392 hit compounds (Fig. 4B). […]

CCOC(=O)c1nnn(-c2nn3nnnc3c3ccccc23)c1C [compound 2]
% effect on IFNγ secretion (mild effect in 4 of 23 donor combinations): < 40% | activity on IFNγ secretion (some donors of 23 donor combinations): no activity | % effect on IFNγ secretion (strong effect in 5 of 23 donor combinations): > 40%
